Test results taken from patent publication US20150105252A1, “SUBSTITUTED PYRAZOLES AS HERBICIDES” (E I DU PONT DE NEMOURS AND COMPANY, priority 2013, published 2015).

Experiments:
[1] = system: barnyardgrass; experiment: Test A preemergence; type: in vivo, Echinochloa crus-galli; settings: Preemergence, 1000 g ai/ha; 0 to 100 scale, 0 no effect, 100 complete control
Method in brief: (§1)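 Visual injury ratings, 0 = no effect to 100 = complete control, taken about 10 days after treatment against untreated controls. Test chemicals, in a non-phytotoxic surfactant-containing solvent, were sprayed onto soil preemergence or onto one- to two-leaf plants (2–10 cm) postemergence, in loam–sand soil under greenhouse conditions.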

[2] = system: crabgrass, large; experiment: Test A preemergence; type: in vivo, Digitaria sanguinalis; settings: Preemergence, 1000 g ai/ha; 0 to 100 scale, 0 no effect, 100 complete control
Method in brief: as §1

[3] = system: foxtail, giant; experiment: Test A preemergence; type: in vivo, Setaria faberii; settings: Preemergence, 1000 g ai/ha; 0 to 100 scale, 0 no effect, 100 complete control
Method in brief: as §1

[4] = system: morningglory; experiment: Test A preemergence; type: in vivo, Ipomoea spp.; settings: Preemergence, 1000 g ai/ha; 0 to 100 scale, 0 no effect, 100 complete control
Method in brief: as §1

[5] = system: pigweed; experiment: Test A preemergence; type: in vivo, Amaranthus retroflexus; settings: Preemergence, 1000 g ai/ha; 0 to 100 scale, 0 no effect, 100 complete control
Method in brief: as §1

[6] = system: velvetleaf; experiment: Test A preemergence; type: in vivo, Abutilon theophrasti; settings: Preemergence, 1000 g ai/ha; 0 to 100 scale, 0 no effect, 100 complete control
Method in brief: as §1

[7] = system: wheat; experiment: Test A preemergence; type: in vivo, Triticum aestivum
Method in brief: as §1

[8] = system: corn; experiment: Test A preemergence; type: in vivo, Zea mays; settings: Preemergence, 1000 g ai/ha; 0 to 100 scale, 0 no effect, 100 complete control
Method in brief: as §1

[9] = system: barnyardgrass; experiment: Test A postemergence; type: in vivo, Echinochloa crus-galli; settings: Postemergence, 1000 g ai/ha; visual rating after approx. 10 days, 0 to 100 scale (0 no effect, 100 complete control)
Method in brief: as §1

[10] = system: crabgrass, large; experiment: Test A postemergence; type: in vivo, Digitaria sanguinalis; settings: Postemergence, 1000 g ai/ha; visual rating after approx. 10 days, 0 to 100 scale (0 no effect, 100 complete control)
Method in brief: as §1

[11] = system: foxtail, giant; experiment: Test A postemergence; type: in vivo, Setaria faberii; settings: Postemergence, 1000 g ai/ha; visual rating after approx. 10 days, 0 to 100 scale (0 no effect, 100 complete control)
Method in brief: as §1

[12] = system: morningglory; experiment: Test A postemergence; type: in vivo, Ipomoea spp.; settings: Postemergence, 1000 g ai/ha; visual rating after approx. 10 days, 0 to 100 scale (0 no effect, 100 complete control)
Method in brief: as §1

[13] = system: pigweed; experiment: Test A postemergence; type: in vivo, Amaranthus retroflexus; settings: Postemergence, 1000 g ai/ha; visual rating after approx. 10 days, 0 to 100 scale (0 no effect, 100 complete control)
Method in brief: as §1

[14] = system: velvetleaf; experiment: Test A postemergence; type: in vivo, Abutilon theophrasti; settings: Postemergence, 1000 g ai/ha; visual rating after approx. 10 days, 0 to 100 scale (0 no effect, 100 complete control)
Method in brief: as §1

[15] = system: wheat; experiment: Test A postemergence; type: in vivo, Triticum aestivum; settings: Postemergence, 1000 g ai/ha; visual rating after approx. 10 days, 0 to 100 scale (0 no effect, 100 complete control)
Method in brief: as §1

[16] = system: corn; experiment: Test A postemergence; type: in vivo, Zea mays; settings: Postemergence, 1000 g ai/ha; visual rating after approx. 10 days, 0 to 100 scale (0 no effect, 100 complete control)
Method in brief: as §1

[17] = Preemergence, 1000 g ai/ha, 0 to 100 scale, 0 no effect, 100 complete control
[18] = preemergence, 500 g ai/ha, visual injury after approx. 10 days, 0 to 100 scale (0 no effect, 100 complete control)

Compound | Barnyardgrass plant response rating [1] | Crabgrass, Large plant response rating [2] | Foxtail, Giant plant response rating [3] | Morningglory plant response rating [4] | Pigweed plant response rating [5] | Velvetleaf plant response rating [6] | Wheat plant response rating [7, 17] | Corn plant response rating [8] | Barnyardgrass plant response rating [9] | Crabgrass, Large plant response rating [10] | Foxtail, Giant plant response rating [11] | Morningglory plant response rating [12] | Pigweed plant response rating [13] | Velvetleaf plant response rating [14] | Wheat plant response rating [15] | Corn plant response rating [16] | Wheat plant response rating [7, 18]
CCc1cc(C(=O)NCCC(F)(F)F)nn1Cc1cccc(OC(F)(F)F)c1 [Compound 55] | 10 | 100 | 90 | 20 | 80 | 10 | 0 | 0 | 10 | 50 | 50 | 100 | 70 | 90 | 10 | 20 | –
CCc1cc(C(=O)N(C)C)nn1Cc1cccc(OC(F)(F)F)c1 [Compound 56] | 0 | 0 | 10 | 0 | 0 | 0 | 0 | 0 | 0 | 10 | 20 | 70 | 60 | 10 | 0 | 10 | –
CCc1cc(C(=O)NCCOC)nn1Cc1cccc(OC(F)(F)F)c1 [Compound 57] | 10 | 20 | 90 | 10 | 10 | 0 | 0 | 0 | 10 | 10 | 10 | 60 | 50 | 30 | 0 | 40 | 0
CCCCNC(=O)c1cc(CC)n(Cc2cccc(OC(F)(F)F)c2)n1 [Compound 62] | 10 | 40 | 60 | 20 | 20 | 10 | 0 | 0 | 10 | 20 | 30 | 80 | 70 | 70 | 20 | 50 | 0
